Assay [1] deals with conjugative transfer of plasmid pKM101. As to the kind of experiment: Conjugation assay, pKM101-carrying donor FM433 and plasmid-free recipient WL400. The assay is classed as cell-based. The conditions noted are these: 50 μM, 2.5% DMSO. On the procedure:
Quantitation of conjugative DNA transfer was performed as described previously. For analysis of the inhibition of conjugation by fragments or small molecules, the cells were cultivated on agar and in liquid media in the presence of 50 μM of the small molecules in the presence of 2.5% DMSO.

Assay [2] deals with T1, purified periplasmic domain of TraE (plasmid pKM101) (Escherichia coli, UniProt Q17U16). As to the kind of experiment: Binding to TraE by fluorescence quenching (intrinsic UV fluorescence). Particulars: 20 °C, 20 mM HEPES, 50 mM NaCl, pH 7.4; single site saturation fit. As for the experimental part: Protein overexpression and purification was performed as described previously. The TraE buffer was changed to 20 mM HEPES, 50 mM NaCl, pH 7.4. TraE protein concentrations were determined using the molar extinction coefficient at 280 nm of 25 900 M^−1 cm^−1.
Changes of the intrinsic UV fluorescence emission of TraE upon binding of fragments and small molecules were recorded at 20 °C with a Cary Eclipse Fluorometer (Varian) (λex 295 nm, λem 340 nm, 5 nm excitation and emission slit widths) in 20 mM HEPES, 50 mM NaCl, pH 7.4. The spectra were corrected for dilution effects and KD values were calculated from the ligand binding fluorescence data fitted to a single site saturation curve with constant background using the Grafit 6.0 software package.

The subject of assay [3] is purified periplasmic domain of TraE. As to the kind of experiment: In vitro DSS cross-linking assay of TraE dimerization. The assay is classed as biochemical. Particulars: 0–1.6 mM molecule, normalized to control without small molecules. On the procedure:
Chemical crosslinking with disuccinimidyl suberate (DSS, Pierce) was performed as described previously[13] and the formation of crosslinking products was quantified by SDS-PAGE and using the ImageLab Software 4.0 (Bio-Rad).

In assay [4] the target is T1, purified periplasmic domain of TraE (plasmid pKM101). Kind of assay: Differential scanning fluorimetry (DSF) thermal shift of TraE. It is filed as binding. Particulars: 5 mM fragment or small molecule, 5 μM protein; hit when ΔTm higher than 1 °C. On the procedure:
A library of 505 fragments was used in this study of which 186 were previously described[14] and the others are listed in Supplementary Table 3. DSF experiments were performed as described previously. DSF was conducted using 5 μM of protein, 10X concentration of SYPRO Orange (from 5000X stock solution, ThermoFisher) in 20 mM HEPES, 50 mM NaCl, pH 7.4 and 5% final concentration of DMSO. For fragment-based screening and molecule optimization, fragments or small molecules were added to final concentrations of 5 mM. SYPRO Orange fluorescence was monitored over 20–95 °C with a LightCycler® 480 instrument (Roche, USA). The LightCycler® 480 Software (Roche) was used to calculate the first derivate of the resulting melting curve, with the steepest point of the slope being the Tm. Fragments were considered to be hits when ΔTm was higher than 1 °C, which is two times higher than the standard deviation of the DMSO control.

T1 sequence (Q17U16 entry or part of it): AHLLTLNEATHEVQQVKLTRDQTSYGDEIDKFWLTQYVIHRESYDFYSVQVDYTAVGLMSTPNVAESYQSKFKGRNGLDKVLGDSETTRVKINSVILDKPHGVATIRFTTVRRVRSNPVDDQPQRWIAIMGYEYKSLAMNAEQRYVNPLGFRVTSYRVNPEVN

As to 2-chloroisonicotinic acid [4H10], the “Effect on conjugative transfer of pKM101” value in assay [1] is given as “no effect on conjugation”. For the same compound, the dissociation constant (Kd) in assay [2] was found to be 32 ± 1.8 µM.

Take `O=C(O)c1ccco1` [1E6, 2-furoic acid]: the “Effect on conjugative transfer of pKM101” value in assay [1] is given as “no effect on conjugation”. In addition, the Kd in assay [2] worked out at 23 ± 1.9 µM.

Turning to `O=C(O)c1cc(-n2cccc2)ccn1` [compound 105055, 4-(1H-pyrrol-1-yl)pyridine-2-carboxylic acid], in assay [1], the “Effect on conjugative transfer of pKM101” value was “significantly reduce conjugative DNA transfer”. The compound further came in with a Kd in assay [2] of 9.3 ± 0.4 µM. Moreover, the “Effect on formation of DSS-dependent cross-linking products of TraE (dimerization)” value in assay [3] is given as “significantly inhibit cross-linking”. The “Effect on thermal melting point of TraE (DSF)” value in assay [4] is “stabilized the protein”.

With `O=C(O)c1ccnc(-c2ccco2)c1` [compound 239852, 2-(2-furyl)isonicotinic acid], in assay [1], the “Effect on conjugative transfer of pKM101” value is listed as “significantly reduce conjugative DNA transfer”. The affinity in assay [2], expressed as Kd, was 19.6 ± 1.2 µM. Also, the “Effect on formation of DSS-dependent cross-linking products of TraE (dimerization)” value in assay [3] is “significantly inhibit cross-linking”. For the same compound, the “Effect on thermal melting point of TraE (DSF)” value in assay [4] is listed as “stabilized the protein”.

The values above are taken from paper PMC5668240, “Fragment-based screening identifies novel targets for inhibitors of conjugative transfer of antimicrobial resistance by plasmid pKM101” (Scientific Reports, 2017).
